In patent publication EP3130594B1, “PHOSPHONATES OF ACETYLENIC BETULIN DERIVATIVES WITH ANTICANCER ACTIVITY, METHOD FOR THEIR PRODUCTION AND THEIR APPLICATION” (Slaski Uniwersytet Medyczny w Katowicach, priority 2015, dated 2017):
In brackets after ≈: the same amount, converted by molar mass.

Legend:
Experiment in all cases: Cytotoxic activity in vitro, WST1 test
breast cancer T47D = format: cell-based, human; details: T47D cells, Neg = no activity in the applied concentration range; for IC50: Homo sapiens, read-out: Cytotoxic activity in vitro as IC50
Description: (§1) The evaluation of cytotoxic activity of the compounds described with Formula 2 was carried out against human cancer cells [brain glioma SNB-19, breast cancer T47D, melanoma C32] using WST1 tests (Table 1).

brain glioma SNB-19 = format: cell-based; details: Homo sapiens, SNB-19 cells, read-out: Cytotoxic activity in vitro as IC50
Description: as §1

melanoma C32 = format: cell-based; details: Homo sapiens, C32 cells, read-out: Cytotoxic activity in vitro as IC50
Description: as §1

SMILES: CC#CC(=O)OC[C@]12CC[C@@H](/C(C)=C/P(=O)(OCC)OCC)[C@@H]1[C@H]1CC[C@@H]3[C@@]4(C)CC[C@H](OC(=O)C#CC)C(C)(C)[C@@H]4CC[C@@]3(C)[C@]1(C)CC2 [3,28-Di(2-butynoyl)-29-diethoxyphosphorylbetulin]
- IC50 (breast cancer T47D): 13.9 ± 3.4 µg/mL (≈ 19.6 µM)
- IC50 (brain glioma SNB-19): 7.6 ± 1 µg/mL (≈ 10.7 µM)
- IC50 (melanoma C32): 4.9 ± 0.3 µg/mL (≈ 6.89 µM)

SMILES: CCOP(=O)(/C=C(\C)[C@@H]1CC[C@]2(COC(=O)C#CC3CC3)CC[C@]3(C)[C@H](CC[C@@H]4[C@@]5(C)CC[C@H](OC(=O)C#CC6CC6)C(C)(C)[C@@H]5CC[C@]43C)[C@@H]12)OCC [3,28-Di(cyclopropylpropynoyl)-29-diethoxyphosphorylbetulin]
- IC50 (breast cancer T47D): 79.5 ± 1.9 µg/mL (≈ 104 µM)
- IC50 (brain glioma SNB-19): 40.4 ± 6.8 µg/mL (≈ 52.9 µM)
- IC50 (melanoma C32): 9.4 ± 0.2 µg/mL (≈ 12.3 µM)

SMILES: CCOP(=O)(/C=C(\C)[C@@H]1CC[C@]2(COC(=O)C#CC3CC3)CC[C@]3(C)[C@H](CC[C@@H]4[C@@]5(C)CC[C@H](O)C(C)(C)[C@@H]5CC[C@]43C)[C@@H]12)OCC [28-cyclopropylpropynoyl-29-diethoxyphosphorylbetulin]
- IC50 (breast cancer T47D): 8.2 ± 0.6 µg/mL (≈ 12.2 µM)
- IC50 (brain glioma SNB-19): 2.2 ± 0.8 µg/mL (≈ 3.28 µM)
- IC50 (melanoma C32): 4.7 ± 0.7 µg/mL (≈ 7.01 µM)

SMILES: C#CCOC(=O)OC[C@]12CC[C@@H](/C(C)=C/P(=O)(OCC)OCC)[C@@H]1[C@H]1CC[C@@H]3[C@@]4(C)CC[C@H](O)C(C)(C)[C@@H]4CC[C@@]3(C)[C@]1(C)CC2 [29-Diethoxyphosphoryl-28-propargyloxycarbonylbetulin]
- IC50 (breast cancer T47D): 49.4 ± 6.1 µg/mL (≈ 74.7 µM)
- IC50 (brain glioma SNB-19): 24.5 ± 12.6 µg/mL (≈ 37.1 µM)
- IC50 (melanoma C32): 5.9 ± 0.3 µg/mL (≈ 8.93 µM)

SMILES: C#CCOC(=O)OC[C@]12CC[C@@H](/C(C)=C/P(=O)(OCC)OCC)[C@@H]1[C@H]1CC[C@@H]3[C@@]4(C)CC[C@H](OC(=O)OCC#C)C(C)(C)[C@@H]4CC[C@@]3(C)[C@]1(C)CC2 [29-diethoxyphosphoryl-3,28-di(propargyloxycarbonyl)betulin]
- Cytotoxic activity in vitro as IC50 (breast cancer T47D): Neg
- IC50 (brain glioma SNB-19): 0.5 ± 0.1 µg/mL (≈ 0.673 µM)
- IC50 (melanoma C32): 51.7 ± 4.8 µg/mL (≈ 69.6 µM)

SMILES: C=C(C)[C@@H]1CC[C@]2(CO)CC[C@]3(C)[C@H](CC[C@@H]4[C@@]5(C)CC[C@H](O)C(C)(C)[C@@H]5CC[C@]43C)[C@@H]12 [Betulin, lup-20(29)-ene-3β,28-diol]
- IC50 (breast cancer T47D): 77.9 ± 4 µg/mL (≈ 176 µM)
- IC50 (brain glioma SNB-19): 23.5 ± 2 µg/mL (≈ 53.1 µM)

SMILES: C=C(CP(=O)(OCC)OCC)[C@@H]1CC[C@]2(COC(C)=O)CC[C@]3(C)[C@H](CC[C@@H]4[C@@]5(C)CC[C@H](OC(C)=O)C(C)(C)[C@@H]5CC[C@]43C)[C@@H]12 [R = R1 = Et, R2 = AcO, R3 = CH2OAc, 3, 28 - Diacetyl - 30 - diethoxyphosphorylbetulin]
- IC50 (breast cancer T47D): 58 ± 3.4 µg/mL (≈ 87.5 µM)
- IC50 (brain glioma SNB-19): 51.9 ± 0.8 µg/mL (≈ 78.3 µM)

SMILES: C#CC(=O)OC[C@]12CC[C@@H](/C(C)=C/P(=O)(OCC)OCC)[C@@H]1[C@H]1CC[C@@H]3[C@@]4(C)CC[C@H](O)C(C)(C)[C@@H]4CC[C@@]3(C)[C@]1(C)CC2 [R = R1 = Et, R2 = HO, R3 =CH2C(O)C≡CH, 29-Diethoxyphosphoryl-28-propynoylbetulin]
- IC50 (breast cancer T47D): 0.4 ± 0.1 µg/mL (≈ 0.634 µM)
- IC50 (brain glioma SNB-19): 0.3 ± 0.1 µg/mL (≈ 0.476 µM)

SMILES: CC#CC(=O)OC[C@]12CC[C@@H](/C(C)=C/P(=O)(OCC)OCC)[C@@H]1[C@H]1CC[C@@H]3[C@@]4(C)CC[C@H](O)C(C)(C)[C@@H]4CC[C@@]3(C)[C@]1(C)CC2 [R = R1 =Et, R2 =HO, R3 =CH2OC(O)C ≡ CCH3, 28-(2-butynoyl)-29-diethoxyphosphorylbetulin]
- IC50 (breast cancer T47D): 9.6 ± 0.6 µg/mL (≈ 14.9 µM)
- IC50 (brain glioma SNB-19): 7.5 ± 0.3 µg/mL (≈ 11.6 µM)
- IC50 (melanoma C32): 4.9 ± 0.1 µg/mL (≈ 7.6 µM)

SMILES: C#CC(=O)OC[C@]12CC[C@@H](/C(C)=C/P(=O)(OCC)OCC)[C@@H]1[C@H]1CC[C@@H]3[C@@]4(C)CC[C@H](OC(=O)C#C)C(C)(C)[C@@H]4CC[C@@]3(C)[C@]1(C)CC2 [R=R1=Et, R2=HC≡CC(O)O, R3 = CH2C(O)C≡CH, 29-Diethoxyphosphoryl-3,28-dipropynoylbetulin]
- IC50 (breast cancer T47D): 2.8 ± 0.6 µg/mL (≈ 4.1 µM)
- IC50 (brain glioma SNB-19): 0.6 ± 0.1 µg/mL (≈ 0.879 µM)

SMILES: CCOP(=O)(/C=C(/C)[C@@H]1CC[C@]2(CO)CC[C@]3(C)[C@H](CC[C@@H]4[C@@]5(C)CC[C@H](O)C(C)(C)[C@@H]5CC[C@]43C)[C@@H]12)OCC [cis R = R1 = Et, R2 =OH, R3 = CH2OH, Z - 29 - Diethoxyphosphorylbetulin]
- IC50 (breast cancer T47D): 0.9 ± 0.1 µg/mL (≈ 1.55 µM)
- IC50 (brain glioma SNB-19): 4.8 ± 0.1 µg/mL (≈ 8.29 µM)

SMILES: CCOP(=O)(/C=C(\C)[C@@H]1CC[C@]2(CO)CC[C@]3(C)[C@H](CC[C@@H]4[C@@]5(C)CC[C@H](O)C(C)(C)[C@@H]5CC[C@]43C)[C@@H]12)OCC [trans R = R1 =Et, R2= OH, R3 = CH2OH, E-29-Diethoxyphosphorylbetulin]
- IC50 (breast cancer T47D): 6.2 ± 0.5 µg/mL (≈ 10.7 µM)
- IC50 (brain glioma SNB-19): 5.9 ± 0.4 µg/mL (≈ 10.2 µM)
